Measured values as given in the Kinase Knowledgebase extract (Sharma et al. 2016).

Biological target: EGFR (human) (UniProt P00533)
Sequence (P00533 whole entry, looked up): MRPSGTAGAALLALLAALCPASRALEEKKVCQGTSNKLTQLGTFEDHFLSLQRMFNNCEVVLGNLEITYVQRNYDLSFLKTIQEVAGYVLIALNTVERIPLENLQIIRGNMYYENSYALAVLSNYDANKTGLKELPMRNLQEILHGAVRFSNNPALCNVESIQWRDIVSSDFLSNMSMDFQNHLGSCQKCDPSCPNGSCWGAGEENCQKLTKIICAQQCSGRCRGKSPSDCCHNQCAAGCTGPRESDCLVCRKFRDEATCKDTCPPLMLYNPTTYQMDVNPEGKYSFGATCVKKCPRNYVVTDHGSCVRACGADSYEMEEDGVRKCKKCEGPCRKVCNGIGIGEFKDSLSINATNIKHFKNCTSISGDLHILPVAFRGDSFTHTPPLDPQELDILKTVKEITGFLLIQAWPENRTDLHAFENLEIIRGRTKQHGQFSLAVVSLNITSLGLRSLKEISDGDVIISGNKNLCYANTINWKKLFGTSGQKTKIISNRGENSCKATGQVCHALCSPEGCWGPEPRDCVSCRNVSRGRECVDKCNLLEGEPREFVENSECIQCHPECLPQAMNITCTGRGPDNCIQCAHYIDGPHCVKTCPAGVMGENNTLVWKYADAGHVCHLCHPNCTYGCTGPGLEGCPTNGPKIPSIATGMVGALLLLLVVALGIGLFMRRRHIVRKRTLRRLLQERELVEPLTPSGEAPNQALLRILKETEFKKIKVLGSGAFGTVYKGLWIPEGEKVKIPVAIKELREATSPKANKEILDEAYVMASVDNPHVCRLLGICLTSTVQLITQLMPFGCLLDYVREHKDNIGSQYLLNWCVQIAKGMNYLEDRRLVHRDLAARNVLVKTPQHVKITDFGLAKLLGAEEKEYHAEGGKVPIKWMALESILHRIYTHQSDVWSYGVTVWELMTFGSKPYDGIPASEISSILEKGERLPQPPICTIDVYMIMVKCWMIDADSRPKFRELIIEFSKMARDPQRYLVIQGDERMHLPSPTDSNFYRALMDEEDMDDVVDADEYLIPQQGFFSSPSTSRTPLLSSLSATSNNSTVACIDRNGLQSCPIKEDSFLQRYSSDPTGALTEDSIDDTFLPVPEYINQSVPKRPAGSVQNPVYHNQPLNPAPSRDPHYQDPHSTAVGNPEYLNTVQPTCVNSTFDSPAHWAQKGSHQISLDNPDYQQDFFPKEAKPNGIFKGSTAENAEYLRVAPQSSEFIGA

Row | Structure (SMILES) | IC50
1 | C=CC(=O)N1CCC[C@@H](n2nc(-c3ccc(CNS(=O)(=O)c4cc(F)ccc4OC)cc3)c3c(N)ncnc32)C1 | 163 nM
2 | C=CC(=O)N1CCC[C@@H](n2nc(-c3ccc(CNS(=O)(=O)c4cc(C)ccc4C)cc3)c3c(N)ncnc32)C1 | 194 nM
3 | C=CC(=O)N1CCC[C@@H](n2nc(-c3ccc(CNS(=O)(=O)c4ccccc4)cc3)c3c(N)ncnc32)C1 | 265 nM
4 | C=CC(=O)N1CCC[C@@H](n2nc(-c3ccc(CNS(=O)(=O)c4ccc(C)cc4C)cc3)c3c(N)ncnc32)C1 | 250 nM
5 | C=CC(=O)N1CCC[C@@H](n2nc(-c3ccc(CNS(=O)(=O)c4cc(C)ccc4F)cc3)c3c(N)ncnc32)C1 | 64.6 nM
6 | C=CC(=O)N1CCC[C@@H](n2nc(-c3ccc(CNS(=O)(=O)c4ccccc4F)cc3)c3c(N)ncnc32)C1 | 41 nM
7 | C=CC(=O)N1CCC[C@@H](n2nc(-c3ccc(CNS(=O)(=O)c4ccc5ccccc5c4)cc3)c3c(N)ncnc32)C1 | 98.7 nM
8 | C=CC(=O)N1CCC[C@@H](n2nc(-c3ccc(CNS(=O)(=O)c4ccc(F)cc4)cc3)c3c(N)ncnc32)C1 | 363 nM
9 | C=CC(=O)N1CCC[C@@H](n2nc(-c3ccc(CNS(=O)(=O)c4ccc(OCC)cc4)cc3)c3c(N)ncnc32)C1 | 371 nM
10 | C=CC(=O)N1CCC[C@@H](n2nc(-c3ccc(CNS(=O)(=O)c4cccc5ccccc45)cc3)c3c(N)ncnc32)C1 | 58.1 nM
11 | C=CC(=O)N1CCC[C@@H](n2nc(-c3ccc(CNS(=O)(=O)c4cc(Cl)ccc4F)cc3)c3c(N)ncnc32)C1 | 120 nM
12 | C=CC(=O)N1CCC[C@@H](n2nc(-c3ccc(CNS(=O)(=O)c4cccc(OC)c4)cc3)c3c(N)ncnc32)C1 | 290 nM
13 | C=CC(=O)N1CCC[C@@H](n2nc(-c3ccc(CNS(C)(=O)=O)cc3)c3c(N)ncnc32)C1 | 112 nM
14 | C=CC(=O)N1CCC[C@@H](n2nc(-c3ccc(CNS(=O)(=O)CC)cc3)c3c(N)ncnc32)C1 | 132 nM
15 | C=CC(=O)N1CCC[C@@H](n2nc(-c3ccc(CNS(=O)(=O)c4ccccc4Cl)cc3)c3c(N)ncnc32)C1 | 168 nM
16 | C=CC(=O)N1CCC[C@@H](n2nc(-c3ccc(CNS(=O)(=O)c4ccc(OC)cc4)cc3)c3c(N)ncnc32)C1 | 129 nM
17 | C=CC(=O)N1CCC[C@@H](n2nc(-c3ccc(CNS(=O)(=O)c4cccc(F)c4)cc3)c3c(N)ncnc32)C1 | 81.7 nM
18 | N#CN1CCC[C@@H](n2nc(-c3ccc(CNS(=O)(=O)c4cccc(F)c4)cc3)c3c(N)ncnc32)C1 | 272 nM
19 | C=CC(=O)N1CCC[C@@H](n2nc(-c3ccc(CNS(=O)(=O)c4c(F)cccc4F)cc3)c3c(N)ncnc32)C1 | 95.7 nM
20 | C=CC(=O)N1CCC[C@@H](n2nc(-c3ccc(CNS(=O)(=O)c4cc(F)cc(F)c4)cc3)c3c(N)ncnc32)C1 | 120 nM

Row | Structure (SMILES) | IC50
21 | C=CC(=O)N1CCC[C@@H](n2nc(-c3ccc(CNS(=O)(=O)c4ccccc4C(F)(F)F)cc3)c3c(N)ncnc32)C1 | 86.3 nM
22 | C=CC(=O)N1CCC[C@@H](n2nc(-c3ccc(CNS(=O)(=O)c4ccc(F)c(C(F)(F)F)c4)cc3)c3c(N)ncnc32)C1 | 199 nM
23 | C=CC(=O)N1CCC[C@@H](n2nc(-c3ccc(CNS(=O)(=O)c4ccc(F)cc4F)cc3)c3c(N)ncnc32)C1 | 124 nM
24 | C=CC(=O)N1CCC[C@@H](n2nc(-c3ccc(CNS(=O)(=O)c4ccc(-c5ccccc5)cc4)cc3)c3c(N)ncnc32)C1 | 73 nM
25 | C=CC(=O)N1CCC[C@@H](n2nc(-c3ccc(CNS(=O)(=O)c4cccc(C)c4)cc3)c3c(N)ncnc32)C1 | 86.2 nM
26 | C=CC(=O)N1CCC[C@@H](n2nc(-c3ccc(CNS(=O)(=O)C4CCCCC4)cc3)c3c(N)ncnc32)C1 | 45 nM
27 | C=CC(=O)N1CCC[C@@H](n2nc(-c3ccc(CNS(=O)(=O)CCC(F)(F)F)cc3)c3c(N)ncnc32)C1 | 277 nM
28 | C=CC(=O)N1CCC[C@@H](n2nc(-c3ccc(CNS(=O)(=O)c4ccccc4OC(F)(F)F)cc3)c3c(N)ncnc32)C1 | 452 nM
29 | C=CC(=O)N1CCC[C@@H](n2nc(-c3ccc(CNS(=O)(=O)c4cc(C(F)(F)F)ccc4F)cc3)c3c(N)ncnc32)C1 | 151 nM
30 | C=CC(=O)N1CCC[C@@H](n2nc(-c3ccc(CNS(=O)(=O)c4ccc(Cl)cc4)cc3)c3c(N)ncnc32)C1 | 60.5 nM
31 | C=CC(=O)N1CCC[C@@H](n2nc(-c3ccc(CNS(=O)(=O)c4cc(F)cc(C(F)(F)F)c4)cc3)c3c(N)ncnc32)C1 | 97.7 nM
32 | C=CC(=O)N1CCC[C@@H](n2nc(-c3ccc(CNS(=O)(=O)c4ccc5c(c4)CCC5)cc3)c3c(N)ncnc32)C1 | 73.3 nM
33 | C=CC(=O)N1CCC[C@@H](n2nc(-c3ccc(CNS(=O)(=O)c4ccc(C)cc4)cc3)c3c(N)ncnc32)C1 | 90.7 nM
34 | N#CN1CCC[C@@H](n2nc(-c3ccc(CNS(=O)(=O)c4cccc(Cl)c4)cc3)c3c(N)ncnc32)C1 | 572 nM
35 | C=CC(=O)N1CCC[C@@H](n2nc(-c3ccc(CNS(=O)(=O)c4cc(C)ccc4OC)cc3)c3c(N)ncnc32)C1 | 351 nM
36 | C=CC(=O)N1CCC[C@@H](n2nc(-c3ccc(CN(C)S(=O)(=O)c4ccccc4F)cc3)c3c(N)ncnc32)C1 | 78.8 nM
37 | C=CC(=O)N1CCC[C@@H](n2nc(-c3ccc(CNS(=O)(=O)c4ccc(C)cc4OC)cc3)c3c(N)ncnc32)C1 | 323 nM
38 | C=CC(=O)N1CCC[C@@H](n2nc(-c3ccc(CNS(=O)(=O)c4ccc(C)cc4F)cc3)c3c(N)ncnc32)C1 | 174 nM
39 | C=CC(=O)N1CCC[C@@H](n2nc(-c3ccc(CNS(=O)(=O)c4cccc(Cl)c4)cc3)c3c(N)ncnc32)C1 | 45.7 nM
40 | C=CC(=O)N1CCC[C@@H](n2nc(-c3ccc(CNS(=O)(=O)c4ccccc4C)cc3)c3c(N)ncnc32)C1 | 91.8 nM
